Here are results for three compounds from US20040077028A1, “Assay for thrombocytopenia associated with administration of platelet GPIIb-IIIa receptor antagonists” (priority 2002, published 2004).

Series [1] deals with platelets (platelet surface P-selectin expression). Nature of the series: Platelet surface P-selectin expression by flow cytometry with GPIIb-specific antibody 5B12. Format: cell-based. Conditions: 5B12 (GPIIb-specific) instead of Y2/51; sub-maximal agonist; FIG. 2.
Protocol: After a subject's blood sample has been incubated with a GPIIb-IIIa antagonist as described above, it is diluted (e.g., between 1:10 and 1:15) in autologous platelet-poor plasma (PPP). Platelet activation is assayed. Briefly, an aliquot (e.g., 20 μl) of dilute whole blood (or PRP)-GPIIb-IIIa receptor antagonist mix is incubated for 15-30 minutes at an appropriate temperature (for example, between about 22° C. and 37° C.) with sub-maximal concentration of a platelet agonist (e.g., in 10 μl). Examples of sub-maximal concentrations of platelet agonist are 0.5 μM ADP, 5.0 μM thrombin receptor activating peptide (TRAP), or 1.5 μM iso-TRAP. ADP is not generally used in the assay when the subject is receiving ADP receptor antagonist therapy. To identify platelets and to detect platelet activation, detection reagents are added.
The samples are generally analyzed using flow cytometry. Platelets are identified by light scatter characteristics and labeling of platelets using platelet-specific antibodies (e.g., antibodies that recognize CD41, CD61, CD42a, or CD42b). The binding of antibodies directed against indicators of platelet activation (e.g., anti-P-selectin, CD62P) is assayed using flow cytometry. […] The mean fluorescence intensity and the percent positive (above background) measurements are recorded.
In a second set of experiments, the monoclonal antibody 5B12 (DAKO) which is GPIIb-specific was used instead of Y2/51.
The subject of series [2] is platelets (platelet P-selectin expression). Conditions: platelet-rich plasma; 1 μg/ml eptifibatide; 0.5 μM ADP; absence of Mab IV.3; FIG. 3.
Protocol: In these experiments, platelet-rich plasma was pre-incubated with FcγRII receptor blocking monoclonal antibody (Mab IV.3, 10 μg/ml). […] The mean fluorescence intensity of platelet P-selectin expression in the presence of 0.5 μM ADP was measured in the presence or absence of unconjugated Y2/51 and in the presence or absence of GPIIb-IIIa receptor antagonist, and with or without an FcγRII receptor blocking monoclonal antibody (Mab IV.3).
The test system of series [3] is platelets (leukocyte-platelet aggregates) in citrate anticoagulated whole blood. The series is described as follows: Neutrophil-platelet (leukocyte-platelet) aggregates by flow cytometry in whole blood with Y2/51. It is filed as cell-based. Conditions: abciximab 6.5 μg/ml, tirofiban 50 ng/ml, FITC conjugated Y2/51, FIG. 1. An excerpt:
In some embodiments, platelet activation is detected by assaying leukocyte-platelet aggregation. In such protocols, peripheral blood is drawn from a subject into a suitable anticoagulant, for example 3.2% sodium citrate anticoagulant or PPACK. […] ADP is not generally used in the assay when the subject is receiving ADP receptor antagonist therapy. […] The fluorescent conjugates of the reagents are labeled to be distinguishable from each other (e.g., fluorescein and phycoerythrin) so that both can be detected by flow cytometry. […] Samples are generally analyzed by flow cytometry. […] Leukocyte-platelet aggregates are identified using fluorescence histograms displaying fluorescence (above background) of platelet specific markers (e.g., CD41, CD61, CD42a or CD42b) from the gated monocyte, neutrophil or lymphocyte populations. Both the mean fluorescence intensity and the percent positive (above background) measurements are recorded. The relative amount of fluorescence (or percent positive above background) in the subject's sample is compared to a reference. An increase in the amount of fluorescence (or percent positive above background) in the subject's sample compared to the reference indicates an increased amount of platelet activation in the subject's sample. […]

For series [4] the following is noted: cited from earlier work.
Setting [5] is: within the patient population that develops an HACA response.

Positions of bridges follow the written chain, without caps; N, C: chain ends. Non-standard residues stand in square brackets, D forms with d. Residues, ends and D or L forms follow the SMILES beside them. hArg = N=C(N)NCCCC[C@H](N)C(=O)O; Mpa = O=C(O)CCS

Regarding `N=C(N)NCCCC[C@@H]1NC(=O)CCSSC[C@@H](C(N)=O)NC(=O)[C@@H]2CCCN2C(=O)[C@H](Cc2c[nH]c3ccccc23)NC(=O)[C@H](CC(=O)O)NC(=O)CNC1=O` [eptifibatide] ([Mpa][hArg]GDWPC-NH2; disulfide 1-7), the “augmentation of agonist-induced platelet surface P-selectin expression in the presence of the GPIIb-IIIa antagonist with 5B12” value in series [1] is “not augmented”. The “augmentation by Y2/51 of ADP-mediated platelet activation (P-selectin) in the presence of the antagonist” value in series [2] was “augments”.
On to `CCCCS(=O)(=O)N[C@@H](Cc1ccc(OCCCCC2CCNCC2)cc1)C(=O)O` [tirofiban], for which the “augmentation by Y2/51 of agonist-induced leukocyte-platelet aggregation (neutrophil-platelet aggregates) in the presence of the GPIIb-IIIa antagonist” value in series [3] is listed as “augmented”. For the same compound, the “augmentation of agonist-induced platelet surface P-selectin expression in the presence of the GPIIb-IIIa antagonist with 5B12” value in series [1] is on record as “not augmented”.
abciximab: the “augmentation by Y2/51 of agonist-induced leukocyte-platelet aggregation (neutrophil-platelet aggregates) in the presence of the GPIIb-IIIa antagonist” value in series [3] is reported as “did not augment”. In addition, the “augmentation of agonist-induced platelet surface P-selectin expression in the presence of the GPIIb-IIIa antagonist with 5B12” value in series [1] is listed as “observed”. Besides, in series [4] (patients receiving the drug for a second time (re-administration)), the “incidence of thrombocytopenia (platelet count of <100×10^9/L)” value is 3.6%. Also, in series [4] (setting [5]), the “incidence of profound thrombocytopenia (platelet count of <20×10^9/L)” value is reported as “less than 1%” and the “incidence of thrombocytopenia (count of <100×10^9/L)” value is recorded as 3.5%.
